From paper doi:10.1101/283176v2 (biorxiv, 2018)

Target: LeuT (Aquifex aeolicus, UniProt O67854)
Experiment: scintillation proximity assay, displacement of [3H]leucine by alanine
Details: Na+ at its K0.5 (11.2 mM), pH 7.4 binding buffer, DDM

KI-ala: 2560 ± 510 nM
Structure (SMILES): C[C@H](N)C(=O)O [alanine]
